Test results as given in patent US20230356105A1, “TETRAAZADODECANE BASED CHELATING AGENTS FOR SEPARATION OF RARE EARTH ELEMENTS AND METHOD THEREFOR” (Ustav Organicke Chemie a Biochemie AV CR V.V.I., priority 2020, published 2023).
Where “and” joins values, the source holds several entries; their conditions need not be identical. Identical values can stand only once.

How the values were obtained:
[1] = Separation of Tb/Dy mixture by repeated precipitation using L5 and α-HIBA (Example 20); format: physicochemical; settings: for Precipitate concentration [mM] Dy / precipitate concentration [mm] Tb: dissolved to 200 μL
Procedure: Analogous to Example 19, three reaction mixtures were prepared with the following changes: the rare-earth elements were Tb and Dy, and 0.5 molar equivalents (5 mM reaction concentration) of α-HIBA were used. Otherwise, the experiment was run analogously to Example 19.
The resulting absolute concentrations of both metals in the supernatants and precipitates, as well as calculated values of the separation factor Dy/Tb according to the formula from Example 11), are summarized in Table 14. […] The average separation factor was 2.32.

[2] = Separation of Nd/Pr/Tb/Dy mixture by repeated precipitation using L5 and α-HIBA (Example 24); format: physicochemical
Procedure: The reaction mixture was prepared by pipetting the following aqueous stock solutions into a 20 mL glass vial: • 1. 476 μL 246 mM aqueous chelator L5 • 2. 606 μL 175.5 mM aqueous LnCl3 solution (from a stock solution containing a mixture of Ln =Nd, Pr, Tb, and Dy, in a ratio of 3.3:1:1:1, Nd:Pr:Tb:Dy) • 3. 41.6 μL 2560 mM aqueous α-HIBA pH=6.5 • 4. 4103 μL water • 5. 1733 μL 3.0 M MOPS pH=7
The total reaction volume was 7.0 mL. Three identical reaction mixtures were prepared. A PTFE-coated stir bar was added to each vial; the vials were capped and stirred on a magnetic stirrer at room temperature. After 18 hours, a 200 μL aliquot of the reaction mixture was taken from each vial. This was centrifuged in a 2 mL plastic Eppendorf centrifuge tube, and the supernatant was carefully pipetted from the sample and transferred to a new set of tubes. The precipitate was dissolved by addition of 200 μL 1 M HCl, and the absolute concentration of each of the four lanthanides (Nd, Pr, Tb, and Dy) in each sample of the supernatant and precipitate was determined by ICP-OES. The remaining reaction mixtures from each vial were individually centrifuged in 15 mL plastic centrifuge tubes to separate the precipitate from the supernatant. The supernatant was discarded. Each precipitate was dissolved by addition of 2 mL 1 M HCl and heating to 80° C. for 1 hour. After dissolution, the acidic solutions were transferred to clean 20 mL glass vials with one PTFE-coated magnetic stir bar each. To each solution was added, in order: 2037 μL water, 40.4 μL 2560 mM aqueous α-HIBA pH =6.5, 1723 μL 3 M aqueous MOPS pH=7, and 1000 μL 2 M NaOH. These solutions were capped and stirred on a magnetic stirrer at room temperature. After 18 hours, a 200 μL aliquot of the reaction mixture was again taken from each and treated for ICP-OES analysis as before. Once again, the remaining reaction mixtures from each vial were individually centrifuged in 15 mL plastic centrifuge tubes to separate the precipitate from the supernatant. The supernatant was discarded. Each precipitate was dissolved by addition of 1 mL 1M HCl and heating to 80° C. for 1 hour. After dissolution, the acidic solutions were transferred to clean 20 mL glass vials with one PTFE-coated magnetic stir bar each. To each solution was added, in order: 3376 μL water, 51.6 μL 2560 mM aqueous α-HIBA pH =6.5, 1672 μL 3 M aqueous MOPS pH=7, and 500 μL 2 M NaOH. These solutions were capped and stirred on a magnetic stirrer at room temperature. After 18 hours, a final 200 μL aliquot of the reaction mixture was again taken from each vial and treated for ICP-OES analysis as before.

[3] = series A (first precipitation, 18 hours), individual samples A1-A3
[4] = series B (repeated precipitation), individual samples B1-B3
[5] = series C (repeated precipitation), individual samples C1-C3

O=C(O)CN1CCN(CC(=O)O)CCN(Cc2cccc3ccccc23)CCN(CC(=O)O)CC1 [L5, 2,2′,2″-(10-(naphthalene-1-ylmethyl)-1,4,7,10-tetraazacyklododekane-1,4,7-triyl)triacetic acid]
Supernatant concentration [mM] Dy ([1]; A, 1st precipitation): 1.41 mM and 1.47 mM and 1.59 mM | Supernatant concentration [mM] Tb ([1]; A, 1st precipitation, 5 mM α-HIBA): 0.77 mM and 0.86 mM | Supernatant concentration [mM] Tb ([1]; A, 1st precipitation, 5 mM α-HIBA, mean): 0.82 mM | Precipitate concentration [mM] Dy ([1]; A, 1st precipitation): 3.02 mM and 2.88 mM and 2.92 mM | Precipitate concentration [mM] Dy ([1]; A, 1st precipitation, mean): 2.94 mM | precipitate concentration [mm] Tb ([1]; A, 1st precipitation, mean): 3.74 mM | Supernatant concentration [mM] Dy ([1]; A, 1st precipitation, mean): 1.49 mM | Supernatant concentration [mM] Dy ([1]; B, 2nd precipitation): 1.27 mM and 1.30 mM and 1.26 mM | Supernatant concentration [mM] Tb ([1]; B, 2nd precipitation): 0.84 mM and 0.90 mM and 0.79 mM | Precipitate concentration [mM] Dy ([1]; B, 2nd precipitation): 2.65 mM and 2.72 mM and 2.76 mM | Precipitate concentration [mM] Dy ([1]; B, 2nd precipitation, mean): 2.71 mM | precipitate concentration [mm] Tb ([1]; B, 2nd precipitation, mean): 4.16 mM | Supernatant concentration [mM] Dy ([1]; C, 3rd precipitation): 1.10 mM and 1.20 mM and 1.08 mM | Supernatant concentration [mM] Tb ([1]; C, 3rd precipitation): 0.90 mM and 0.98 mM and 0.83 mM | Precipitate concentration [mM] Dy ([1]; C, 3rd precipitation): 2.52 mM and 2.42 mM and 2.72 mM | Precipitate concentration [mM] Dy ([1]; C, 3rd precipitation, mean): 2.55 mM | precipitate concentration [mm] Tb ([1]; C, 3rd precipitation, mean): 4.70 mM | Supernatant concentration [mM] Dy ([1]; C, 3rd precipitation, mean): 1.13 mM | avg composition of precipitate, Dy ([2]; series A): 6.3% | avg composition of precipitate, Nd ([2]; series A): 67.2% | avg composition of precipitate, Pr ([2]; series A): 18.2% | avg composition of precipitate, Tb ([2]; series A): 8.2% | avg composition of supernatant, Dy ([2]; series A): 43.8% | avg composition of supernatant, Nd ([2]; series A): 21.4% | avg composition of supernatant, Pr ([2]; series A): 3.2% | avg composition of supernatant, Tb ([2]; series A): 31.6% | precipitate concentration Dy [2, 3]: 0.81 mM and 0.82 mM (2×) | precipitate concentration Nd [2, 3]: 8.82 mM and 8.69 mM and 8.55 mM | precipitate concentration Pr [2, 3]: 2.39 mM and 2.35 mM and 2.32 mM | precipitate concentration Tb [2, 3]: 1.05 mM and 1.07 mM and 1.06 mM | supernatant concentration Dy [2, 3]: 1.69 mM and 1.65 mM and 1.68 mM | supernatant concentration Nd [2, 3]: 0.85 mM and 0.90 mM and 0.70 mM | supernatant concentration Pr [2, 3]: 0.12 mM and 0.15 mM and 0.09 mM | supernatant concentration Tb [2, 3]: 1.23 mM and 1.19 mM and 1.20 mM | precipitate concentration Dy, avg ([2]; series A avg): 0.81 mM | precipitate concentration Nd, avg ([2]; series A avg): 8.68 mM | precipitate concentration Pr, avg ([2]; series A avg): 2.35 mM | precipitate concentration Tb, avg ([2]; series A avg): 1.06 mM | supernatant concentration Dy, avg ([2]; series A avg): 1.67 mM | supernatant concentration Nd, avg ([2]; series A avg): 0.82 mM | supernatant concentration Pr, avg ([2]; series A avg): 0.12 mM | supernatant concentration Tb, avg ([2]; series A avg): 1.21 mM | avg composition of precipitate, Dy ([2]; series B): 2.0% | avg composition of precipitate, Nd ([2]; series B): 73.4% | avg composition of precipitate, Pr ([2]; series B): 20.6% | avg composition of precipitate, Tb ([2]; series B): 4.0% | avg composition of supernatant, Dy ([2]; series B): 28.7% | avg composition of supernatant, Nd ([2]; series B): 34.0% | avg composition of supernatant, Pr ([2]; series B): 3.1% | avg composition of supernatant, Tb ([2]; series B): 34.1% | precipitate concentration Dy [2, 4]: 0.20 mM and 0.21 mM and 0.22 mM | precipitate concentration Nd [2, 4]: 7.54 mM and 7.82 mM and 8.02 mM | precipitate concentration Pr [2, 4]: 2.11 mM and 2.20 mM and 2.24 mM | precipitate concentration Tb [2, 4]: 0.41 mM and 0.42 mM and 0.45 mM | supernatant concentration Dy [2, 4]: 0.50 mM and 0.52 mM and 0.54 mM | supernatant concentration Nd [2, 4]: 0.65 mM and 0.60 mM and 0.59 mM | supernatant concentration Pr [2, 4]: 0.06 mM and 0.05 mM (2×) | supernatant concentration Tb [2, 4]: 0.60 mM and 0.61 mM and 0.64 mM | precipitate concentration Dy, avg ([2]; series B avg): 0.21 mM | precipitate concentration Nd, avg ([2]; series B avg): 7.80 mM | precipitate concentration Pr, avg ([2]; series B avg): 2.18 mM | precipitate concentration Tb, avg ([2]; series B avg): 0.42 mM | supernatant concentration Dy, avg ([2]; series B avg): 0.52 mM | supernatant concentration Nd, avg ([2]; series B avg): 0.61 mM | supernatant concentration Pr, avg ([2]; series B avg): 0.06 mM | supernatant concentration Tb, avg ([2]; series B avg): 0.62 mM | avg composition of precipitate, Dy ([2]; series C): 0.5% | avg composition of precipitate, Nd ([2]; series C): 75.6% | avg composition of precipitate, Pr ([2]; series C): 22.1% | avg composition of precipitate, Tb ([2]; series C): 1.8% | avg composition of supernatant, Dy ([2]; series C): 10.4% | avg composition of supernatant, Nd ([2]; series C): 61.4% | avg composition of supernatant, Pr ([2]; series C): 6.5% | avg composition of supernatant, Tb ([2]; series C): 21.6% | precipitate concentration Dy [2, 5]: 0.03 mM and 0.04 mM (2×) | precipitate concentration Nd [2, 5]: 6.34 mM and 6.40 mM and 6.17 mM | precipitate concentration Pr [2, 5]: 1.85 mM and 1.87 mM and 1.80 mM | precipitate concentration Tb [2, 5]: 0.15 mM (2×) and 0.16 mM | supernatant concentration Dy [2, 5]: 0.12 mM (2×) and 0.13 mM | supernatant concentration Nd [2, 5]: 0.67 mM and 0.68 mM and 0.83 mM | supernatant concentration Pr [2, 5]: 0.07 mM (2×) and 0.10 mM | supernatant concentration Tb [2, 5]: 0.24 mM and 0.25 mM and 0.27 mM | precipitate concentration Dy, avg ([2]; series C avg): 0.04 mM | precipitate concentration Nd, avg ([2]; series C avg): 6.30 mM | precipitate concentration Pr, avg ([2]; series C avg): 1.84 mM | precipitate concentration Tb, avg ([2]; series C avg): 0.15 mM | supernatant concentration Dy, avg ([2]; series C avg): 0.12 mM | supernatant concentration Nd, avg ([2]; series C avg): 0.73 mM | supernatant concentration Pr, avg ([2]; series C avg): 0.08 mM | supernatant concentration Tb, avg ([2]; series C avg): 0.26 mM
